Data reported in patent US6891043B2, “Inhibitors of fatty acid amide hydrolase” (The Scripps Research Institute, priority 2000, dated 2005).
Entries after “also recorded” stand apart in the source; their conditions may differ.

How the values were obtained:
FAAH [1] = target: T1, FAAH (Homo sapiens, UniProt O00519); settings: FAAH substrate preference; cited from earlier work
T1 sequence (O00519 1-579): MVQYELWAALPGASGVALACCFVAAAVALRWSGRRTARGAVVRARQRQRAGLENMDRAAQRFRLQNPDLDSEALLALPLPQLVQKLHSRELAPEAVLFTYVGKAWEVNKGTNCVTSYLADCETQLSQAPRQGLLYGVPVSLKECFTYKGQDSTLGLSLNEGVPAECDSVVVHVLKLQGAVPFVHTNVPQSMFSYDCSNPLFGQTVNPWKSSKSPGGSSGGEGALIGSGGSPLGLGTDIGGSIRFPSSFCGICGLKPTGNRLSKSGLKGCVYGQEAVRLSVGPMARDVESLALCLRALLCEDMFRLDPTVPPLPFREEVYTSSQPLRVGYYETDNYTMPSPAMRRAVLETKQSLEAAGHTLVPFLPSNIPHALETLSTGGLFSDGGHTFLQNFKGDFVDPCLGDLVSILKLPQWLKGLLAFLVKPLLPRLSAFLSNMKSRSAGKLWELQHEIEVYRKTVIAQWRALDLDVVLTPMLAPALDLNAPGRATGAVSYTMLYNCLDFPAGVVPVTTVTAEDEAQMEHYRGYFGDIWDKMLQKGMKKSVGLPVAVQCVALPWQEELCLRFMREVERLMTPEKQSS

FAAH [2] = target: T2, FAAH (Rattus norvegicus, UniProt P97612); test: FAAH inhibition: breakdown of 14C-oleamide to oleic acid, solubilized liver plasma membrane extract; assay type: biochemical; settings: for Ki: Dixon method, 14C-oleamide substrate, pH 9.0, 20-23° C., read-out: K1
T2 construct: using a solubilized liver plasma membrane extract containing FAAH; from tissue; host or cells: liver (solubilized plasma membrane extract)
T2 sequence (P97612 1-579): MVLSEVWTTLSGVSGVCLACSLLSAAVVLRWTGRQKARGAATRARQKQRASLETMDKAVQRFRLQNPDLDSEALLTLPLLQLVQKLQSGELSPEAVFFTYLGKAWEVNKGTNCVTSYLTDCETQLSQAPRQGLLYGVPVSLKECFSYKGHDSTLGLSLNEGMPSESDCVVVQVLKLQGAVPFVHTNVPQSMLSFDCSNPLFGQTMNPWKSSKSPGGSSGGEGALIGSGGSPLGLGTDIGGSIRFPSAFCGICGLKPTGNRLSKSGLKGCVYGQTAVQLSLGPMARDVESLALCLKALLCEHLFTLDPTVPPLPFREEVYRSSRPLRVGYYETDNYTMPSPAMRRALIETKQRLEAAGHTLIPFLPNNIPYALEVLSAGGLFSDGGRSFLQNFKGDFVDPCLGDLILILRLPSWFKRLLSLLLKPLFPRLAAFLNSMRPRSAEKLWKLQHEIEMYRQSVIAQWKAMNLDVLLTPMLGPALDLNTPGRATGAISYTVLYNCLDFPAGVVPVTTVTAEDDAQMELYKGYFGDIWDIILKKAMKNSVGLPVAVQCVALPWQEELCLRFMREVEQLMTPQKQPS
Protocol: K1 values were determined by the Dixon method α-intercepts of weighted linear fits of […] plots at constant substrate concentration, which were converted to K1 values using the formula K1=−xint/[1+[S]/Km]).

treated animals = test: In vivo sleep study with 17 (wakefulness, SWS2, REM sleep); settings: 10 mg/kg ip, first 4 h of administration, versus controls
Description: The in vivo properties of the inhibitors detailed herein and their action on the identified oleamide and anandamide potential sites of action are presented herein. […] Accordingly, the inhibitors disclosed herein are useful as inhibitors of FAAH and related amidases, and as a therapeutic agents with applications as sleep aids or analgesics which act by preserving endogenous levels of oleamide and anandamide.

Row | SMILES | FAAH inhibitor potency / activity in words (FAAH [2]) | melting point [°C] | further results
1 | CCCCC/C=C\C/C=C\C/C=C\C/C=C\CCCC(N)=O [arachidonamide] |  |  | rel. rate of hydrolysis (FAAH [1]): 1
2 | CCCCCCCC/C=C\CCCCCCCC(=O)c1nnn(C)n1 [compound 14, 1-(2-Methyl-2H-tetrazol-5-yl)-1-oxo-9(Z)-octadecene] | matched the potency of the trifluoromethyl ketone 3 |  | 
3 | CCCCCCCC/C=C\CCCCCCCC(=O)c1cccnn1 [compound 17, 1-Oxo-1-(3-pyridazinyl)-9(Z)-octadecene] | more potent than 33 and 35, respectively |  | decrease of time spent in wakefulness, of the total time (treated animals): 14%; increase of time spent in REM sleep (treated animals): 75%; increase of time spent in REM sleep, of total time (treated animals): 4%; increase of time spent in SWS2 (treated animals): 45%; increase of time spent in SWS2, of the total time (treated animals): 10%; reduction of time spent in wakefulness (treated animals): 20%
4 | CCCCCCCC/C=C\CCCCCCCC(=O)c1nc2ccccc2o1 [compound 23, 1-(2-Benzoxazolyl)-1-oxo-9(Z)-octadecene] | more potent than 37 |  | 
5 | CCCCCCCC/C=C\CCCCCCCC(=O)c1nc2cccc(C)c2o1 [compound 28, 1-(7-Methylbenzoxazol-2-yl)-1-oxo-9(Z)-octadecene] | greatly diminished |  | 
6 | CCCCCCCC/C=C\CCCCCCCC(=O)c1nc2ncccc2o1 [compound 29, 1-(Oxazolo[4,5-b]pyridin-2-yl)-1-oxo-9(Z)-octadecene] | most potent inhibitor; also recorded: more potent than 33 and 35, respectively |  | 
7 | CCCCCCCC/C=C/CCCCCCCC(=O)c1nc2ncccc2o1 [compound 33, 1-(Oxazolo[4,5-b]pyridin-2-yl)-1-oxo-9(E)-octadecene] | more potent than 34 and 36 |  | 
8 | CCCCCCCC/C=C/CCCCCCCC(=O)c1cccnn1 [compound 35, 1-Oxo-1-(3-pyridazinyl)-9(E)-octadecene] | more potent than 34 and 36 |  | 
9 | CCCCCCCCCCCCCCCC(=O)c1nc2ncccc2o1 [compound 42, 1-(Oxazolo[4,5-b]pyridin-2-yl)-1-oxo-hexadecane] |  | 77 to 78 | 
10 | CCCCCCCCCCCCCC(=O)c1nc2ncccc2o1 [compound 43, 1-(Oxazolo[4,5-b]pyridin-2-yl)-1-oxo-tetradecane] |  | 73 to 74 | 
11 | CCCCCCCCCCCC(=O)c1nc2ncccc2o1 [compound 44, 1-(Oxazolo[4,5-b]pyridin-2-yl)-1-oxo-dodecane] |  | 68 to 69 | 
12 | CCCCCCCCCC(=O)c1nc2ncccc2o1 [compound 45, 1-(Oxazolo[4,5-b]pyridin-2-yl)-1-oxo-decane] |  | 60 to 62 | 
13 | CCCCCCCC(=O)c1nc2ncccc2o1 [compound 46, 1-(Oxazolo[4,5-b]pyridin-2-yl)-1-oxo-octane] |  | 60 to 61 | 
14 | CCCCCCC(=O)c1nc2ncccc2o1 [compound 47, 1-(Oxazolo[4,5-b]pyridin-2-yl)-1-oxo-heptane] |  | 52 to 53 | 
15 | CCCCCC(=O)c1nc2ncccc2o1 [compound 48, 1-(Oxazolo[4,5-b]pyridin-2-yl)-1-oxo-hexane] |  | 51 to 53 | 
16 | CCCCC(=O)c1nc2ncccc2o1 [compound 49, 1-(Oxazolo[4,5-b]pyridin-2-yl)-1-oxo-pentane] |  | 35 to 37 | 
17 | CC(=O)c1nc2ncccc2o1 [compound 50, 1-(Oxazolo[4,5-b]pyridin-2-yl)-1-oxo-ethane] |  | 103 to 105 | 
18 | O=C(CCCCCc1ccccc1)c1nc2ncccc2o1 [compound 53, 1-(Oxazolo[4,5-b]pyridin-2-yl)-1-oxo-6-phenylhexane] |  | 61 to 63 | Ki (FAAH [2]): < 0.2 nM
19 | O=C(CCCCCCc1ccccc1)c1nc2ncccc2o1 [compound 54, 1-(Oxazolo[4,5-b]pyridin-2-yl)-1-oxo-7-phenylheptane] |  | 60 to 61 | 
20 | O=C(CCCCCCCc1ccccc1)c1nc2ncccc2o1 [compound 55, 1-(Oxazolo[4,5-b]pyridin-2-yl)-1-oxo-8-phenyloctane] |  | 70 to 73 | 
21 | CCCCCCCCCCCC(O)c1nc2ncccc2o1 (stereo not shown) [compound 60, 1-Hydroxy-1-(oxazolo[4,5-b]pyridin-2-yl)dodecane] |  |  | Ki (FAAH [2]): 1200 nM; times less potent than the corresponding keto derivative (reduction to alcohol) (FAAH [2]; α-hydroxy versus α-keto): approximately 10^3 times
22 | CCCCCCCCCCCCCCCCCCc1nc2ncccc2o1 [compound 61, 1-(Oxazolo[4,5-b]pyridin-2-yl)octadecane] | inactive | 84 to 85 | additional fold loss of binding affinity with removal of the alcohol (FAAH [2]; versus α-hydroxy compound): 10^2 fold; fold loss of binding affinity / potency with removal of the keto group (FAAH [2]; versus α-keto compound): 10^5 fold
23 | CCCCCCCC/C=C\CCCCCCCC(N)=O [oleamide] |  |  | rel. rate of hydrolysis (FAAH [1]): 0.7
